Broadly, the IC50 is the concentration at which inhibition is half-maximal.

One data set has as its target T1, GR from baker's yeast (Saccharomyces cerevisiae, UniProt P41921).
T1 sequence (P41921 17-483 limits assumed): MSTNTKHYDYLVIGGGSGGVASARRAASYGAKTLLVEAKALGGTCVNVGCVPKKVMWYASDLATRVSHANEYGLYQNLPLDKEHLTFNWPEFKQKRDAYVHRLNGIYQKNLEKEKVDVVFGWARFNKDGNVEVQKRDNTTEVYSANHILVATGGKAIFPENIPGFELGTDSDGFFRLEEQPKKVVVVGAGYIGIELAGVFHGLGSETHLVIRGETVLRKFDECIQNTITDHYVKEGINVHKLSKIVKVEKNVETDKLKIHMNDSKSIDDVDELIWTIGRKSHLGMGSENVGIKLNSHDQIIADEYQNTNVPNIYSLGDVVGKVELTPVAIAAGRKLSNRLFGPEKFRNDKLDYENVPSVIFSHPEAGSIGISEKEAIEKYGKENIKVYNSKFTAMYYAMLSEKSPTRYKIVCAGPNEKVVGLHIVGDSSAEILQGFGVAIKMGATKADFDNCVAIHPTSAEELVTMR
Nature of the data set: Glutathione reductase (GR) activity assay. The data set is classed as biochemical. Particulars: Molar concentration.

The subject of data set [1] is NB-4 (a leukaemia cell line). Put plainly: MTT cell viability assay, NB-4. To be noted: 72 hrs. Type of data set: cell-based. Here is the method: (§1) MDA-MB-453 (ATCC HTB-131) cells were grown in media with sodium pyruvate. MDA-MB-231 cells (ATCC HTB-26) were grown in DMEM media or L-15 supplemented with Glutamax (1×). U87-MG (ATCC HTB-14) and MDA-MB-468 (ATCC HTB-132) cells were cultured in DMEM supplemented with Glutamax (1×). NB-4 (DSMZ ACC-207) cells were cultured in RPMI 1640.
(§2) Breast cancer and glioblastoma cell lines were plated 4000 cells/well in 96-well plates in the presence of 10% FBS media. The following day cells were treated with various concentrations of the example compounds (0.1% DMSO final) and incubated for 72 hrs. After the incubation an MTT assay was performed to access cell viability. Percent of viability was determined using DMSO vehicle and no cell (blank) controls.
(Formazan colour is commonly taken as a measure of viable cells.)

Another data set concerns Trx in MDA-MB-231 cells. Nature of the data set: Intracellular Trx levels by ELISA in MDA-MB-231 tumor cells. The data set is classed as cell-based, human. Here is the method: The human mammary carcinoma cell line MDA-MB-231 was obtained from the American Type Culture Collection (ATCC; Manassas, Va.) and cultured in Leibovitz's L-15 medium (Thermo Fisher Scientific, USA) supplemented with 10% (v/v) heat-inactivated fetal bovine serum (Thermo Fisher Scientific, USA), 10 mM HERBS (Sigma), 25 mM sodium bicarbonate (Sigma), 1× Glutamax (Sigma), 100 IU/mL penicillin and 100 μg/ml streptomycin (Sigma) in a 5% CO2 atmosphere at 37° C. Briefly, cells were seeded at 7500 cells/well in 96-well plates. After 24 h, the cells were treated either with different concentrations of test compounds or DMSO (0.5%; vehicle control) respectively and further incubated at 37° C. in a CO2 incubator. Culture supernatants were collected at different time points, like, immediately after cell plating (−24 h), 0 h (at the time of compound addition), and 1 h, 6 h, 12 h, 24 h, 48 h, 72 h and 96 h following compound addition. Subsequently, cells were lysed from corresponding wells with 0.1% Triton X-100 and the lysates were collected. Trx levels were measured in both the culture supernatants and cell lysates by ELISA using TXN (Human) ELISA Kit [Abnova; Cat no: KA0535] following manufacturer instruction. A standard curve was prepared using different concentrations of the Trx standard (provided in the kit) with the help of GraphPad Prism software (version 5.0; La Jolla, Calif., USA). Trx concentrations for the unknown samples were calculated from the standard curve. The data were expressed as the means of three replicates.
(ELISA stands for enzyme-linked immunosorbent assay.)

Data set [2] concerns the target T2, recombinant TrxR (Rattus norvegicus, UniProt O89049).
T2 sequence (O89049 1-499): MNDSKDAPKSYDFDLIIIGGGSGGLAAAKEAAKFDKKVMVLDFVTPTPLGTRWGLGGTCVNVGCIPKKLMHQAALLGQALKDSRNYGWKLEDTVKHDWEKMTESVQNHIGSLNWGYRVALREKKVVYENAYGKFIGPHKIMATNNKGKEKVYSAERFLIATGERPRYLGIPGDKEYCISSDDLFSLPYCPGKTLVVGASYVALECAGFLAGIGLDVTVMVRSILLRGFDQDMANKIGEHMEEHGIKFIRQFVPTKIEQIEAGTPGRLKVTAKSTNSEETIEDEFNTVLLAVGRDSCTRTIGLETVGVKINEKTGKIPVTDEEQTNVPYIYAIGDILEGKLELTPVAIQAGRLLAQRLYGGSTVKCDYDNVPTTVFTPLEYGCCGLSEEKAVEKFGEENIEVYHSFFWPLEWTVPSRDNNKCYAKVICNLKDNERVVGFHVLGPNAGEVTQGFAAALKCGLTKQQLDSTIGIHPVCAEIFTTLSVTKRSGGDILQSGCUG
Nature of the data set: Sec-independent SecTRAP activity (Juglone assay). Particulars: compound at the concentration that achieves 100% inhibition of TrxR in the DTNB assay.
Description: (§3) SecTRAP forming capabilities of compounds with TrxR was determined using the Juglone Assay. Compounds were incubated in the presence of recombinant TrxR and 250 μM NADPH for 15 minutes at concentrations fully inhibiting enzyme activity in the DTNB assay. 100 μM juglone was then added to each well and NADPH consumption was followed at OD340 to determine sustained reductive capacity at the N-terminus of TrxR (SecTRAP Activity). Activity was determined following the consumption of NADPH over time and normalized to DMSO only (Vehicle) and TrxR lacking (blank) controls.
(§4) Aliquots were used in a DTNB assay to determine inhibition of enzyme activity. […] Incubation samples were then added to a reaction buffer containing 250 μM NADPH and 100 μM juglone, whereupon NADPH consumption was followed at OD340 to determine sustained SecTRAP activity.
(§5) Higher % values for juglone activity (juglone reduction activity) in this assay are indicative of stronger prooxidant activity.

Another data set has as its system MDA-MB-231 cells. Nature of the data set: Alamar-Blue cell viability assay. Type of data set: cell-based, human. Particulars: 72 hrs. Here is the method: MDA-MB-231 cells were plated 2000 cells/well in 96-well black optical plates in the presence of 10% FBS media containing 25 nM selenite. The following day cells were treated with various concentrations of compounds (0.1% DMSO final) and incubated for 72 hrs. After the incubation Alamar Blue reagent was added to each well and incubated for additional 3 hrs. Fluorescence was read ex:530 nm/em:590 nm, and percent of viability was determined using DMSO vehicle and no cell (blank) controls.
For orientation: The colour change of resazurin is a common sign of viable cells or microbes.

Data set [3] relates to MDA-MB-468 (a breast cancer cell line). Put plainly: MTT cell viability assay, MDA-MB-468. The data set is classed as cell-based. Particulars: 72 hrs. Here is the method: as §1, §2
Data set [4] has as its system U-87 MG (a glioblastoma cell line). Put plainly: MTT cell viability assay, U-87 MG. Type of data set: cell-based. To be noted: 72 hrs. Here is the method:
as §1, §2

Data set [5] concerns MDA-MB-231 (a breast cancer cell line). Put plainly: MTT cell viability assay, MDA-MB-231. Type of data set: cell-based, human. Particulars: 72 hrs. The method, then: as §1, §2
In data set [6] the target is T2, recombinant TrxR.
Description: as §3, §4, §5

Description for GR from baker's yeast: GR activity was determined incubating compounds at various concentrations with GR from baker's yeast and 250 μM NADPH for 15 minutes, whereupon 10 mM oxidized glutathione (GSSG) was added to each well and NADPH consumption was followed at OD340. Activity was determined following the consumption of NADPH over time and normalized to DMSO only (Vehicle) and GR lacking (blank) controls.

Take `O=C1C=C[C@H]2[C@@H]3C(=O)N(Cc4ccccc4)C(=O)[C@@H]3[C@@H]1N2Cc1ccccc1` (relative stereo) [OT-2056, exo-4,11-Dibenzyl-4,11-diazatricyclo[5.3.1.0^2,6]undec-9-ene-3,5,8-trione]: the IC50 at GR from baker's yeast was over 30 µM; in data set [1], 0.42 µM. In addition, the “time after which intracellular Trx is reduced compared with control cells” value was 24 h in the data set on Trx in MDA-MB-231 cells (at 1 μM) and 6 h in the data set on Trx in MDA-MB-231 cells (at 10 μM). Further, the “intracellular levels of Trx compared with control cells” value with Trx in MDA-MB-231 cells (at 1 μM and 10 μM) is “reduced”. Moreover, the “Juglone Act (% @ 100% DTNB inhibition)” value at recombinant TrxR [2] is given as 107.692%.

Take `CC(=O)OC[C@H]1O[C@@H]([S-])[C@H](OC(C)=O)[C@@H](OC(C)=O)[C@@H]1OC(C)=O.CCP(CC)CC.[Au+]` [Auranofin, reference compound]: the IC50 was over 30 µM against GR from baker's yeast; 1.4 µM with MDA-MB-231 cells; 0.31 µM in [3]; 1.72 µM in data set [4]; 1.66 µM in [5]. Besides, at recombinant TrxR [6], the “classification as SecTRAP forming agent” value was “SecTRAP-forming agent”.

Take `COc1ccc([N+](=O)[O-])c(S(=O)(=O)Cc2ccccc2)n1` [OT-1011, 2-Benzylsulfonyl-6-methoxy-3-nitropyridine]: the IC50 against GR from baker's yeast was over 30 µM; in data set [1], 1.21 µM. In addition, the “intracellular levels of Trx compared with control cells” value in the data set on Trx in MDA-MB-231 cells (at 1 μM and 10 μM) is recorded as “reduced”. Also, the “time after which intracellular Trx is reduced compared with control cells” value in the data set with Trx in MDA-MB-231 cells (at 1 μM and 10 μM) was in the range of 6 to 12 h. Also, the “Juglone Act (% @ 100% DTNB inhibition)” value at recombinant TrxR [2] stood at 83.67%.

On GR from baker's yeast, `COc1ccc([N+](=O)[O-])c(S(=O)(=O)c2ccccn2)n1` [OT-1012, 6-Methoxy-3-nitro-2-(pyridin-2-ylsulfonyl)pyridine] had an IC50 of over 30 µM. Also, 8.2 µM corresponded to half-maximal inhibition in data set [4] (Homo sapiens, U-87 MG) (IC50). In addition, in the data set with Trx in MDA-MB-231 cells (at all doses), the “intracellular levels of Trx compared with control cells” value was “reduced” and the “time after which intracellular Trx is reduced compared with control cells” value was found to be 12 h. The “Juglone Act (% @ 100% DTNB inhibition)” value at recombinant TrxR [2] stood at 89.8%.

On to `COC(=O)CCS(=O)(=O)c1nc(OC)ccc1[N+](=O)[O-]` [OT-1113, methyl 3-((6-methoxy-3-nitropyridin-2-yl)sulfonyl)propanoate], for which the IC50 against GR from baker's yeast is over 30 µM; in data set [1] it was 1.17 µM. The “time after which intracellular Trx is reduced compared with control cells” value in the data set on Trx in MDA-MB-231 cells (at 1 μM) is 48 h; in the data set with Trx in MDA-MB-231 cells (at 10 μM) it was 65 h. For the same compound, in the data set on Trx in MDA-MB-231 cells (at 1 μM and 10 μM), the “intracellular levels of Trx compared with control cells” value is on record as “reduced”. Moreover, the “Juglone Act (% @ 100% DTNB inhibition)” value on recombinant TrxR [2] turned out to be 91.16%.

Regarding `CC[S+]([O-])c1nc(OC)ccc1[N+](=O)[O-]` (stereo not drawn) [OT-1131, 2-(ethylsulfinyl)-6-methoxy-3-nitropyridine], in the data set with Trx in MDA-MB-231 cells (at 1 μM and 10 μM), the “intracellular levels of Trx compared with control cells” value was “reduced” and the “time after which intracellular Trx is reduced compared with control cells” value is at most 6 h.

(Values after patent publication US20210038577A1, “THIOREDOXIN REDUCTASE INHIBITORS FOR USE IN THE TREATMENT OF CANCER” (Cinda Pharma AB, priority 2018, published 2021).)
